Data taken from PubChem BioAssay (NCI).
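These data come from cells grown in 96-well plates and exposed to compound for 48 hours at five concentrations. TGI: concentration producing complete growth inhibition.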

Assays:
Assay in all cases: NCI anticancer screen, dose series, 48 h
786-0 renal = test system: 786-0 renal
A498 renal = test system: A498 renal
A549 NSCLC = test system: A549 NSCLC
ACHN renal = test system: ACHN renal
BT-549 breast = test system: BT-549 breast
CAKI-1 renal = test system: CAKI-1 renal
CCRF-CEM leukemia = test system: CCRF-CEM leukemia
COLO 205 colon = test system: COLO 205 colon
DU-145 prostate = test system: DU-145 prostate
EKVX NSCLC = test system: EKVX NSCLC
HCT-116 colon = test system: HCT-116 colon
HCT-15 colon = test system: HCT-15 colon
HL-60(TB) leukemia = test system: HL-60(TB) leukemia
HOP-92 NSCLC = test system: HOP-92 NSCLC
HS 578T breast = test system: HS 578T breast
HT29 colon = test system: HT29 colon
IGROV1 ovarian = test system: IGROV1 ovarian
K-562 leukemia = test system: K-562 leukemia
KM12 colon = test system: KM12 colon
M14 melanoma = test system: M14 melanoma
MALME-3M melanoma = test system: MALME-3M melanoma
MCF7 breast = test system: MCF7 breast
MDA-MB-231 breast = test system: MDA-MB-231 breast
MDA-MB-435 = test system: MDA-MB-435
MDA-N = test system: MDA-N
MOLT-4 leukemia = test system: MOLT-4 leukemia
NCI-H226 lung = test system: NCI-H226 lung
NCI-H23 lung = test system: NCI-H23 lung
NCI-H460 lung = test system: NCI-H460 lung
NCI-H522 lung = test system: NCI-H522 lung
OVCAR-4 ovarian = test system: OVCAR-4 ovarian
OVCAR-5 ovarian = test system: OVCAR-5 ovarian
PC-3 prostate = test system: PC-3 prostate
RPMI-8226 leukemia = test system: RPMI-8226 leukemia
RXF 393 renal = test system: RXF 393 renal
SF-268 CNS = test system: SF-268 CNS
SF-295 CNS = test system: SF-295 CNS
SF-539 CNS = test system: SF-539 CNS
SK-MEL-2 melanoma = test system: SK-MEL-2 melanoma
SK-MEL-28 melanoma = test system: SK-MEL-28 melanoma
SK-MEL-5 melanoma = test system: SK-MEL-5 melanoma
SK-OV-3 ovarian = test system: SK-OV-3 ovarian
SN12C renal = test system: SN12C renal
SNB-19 CNS = test system: SNB-19 CNS
SNB-75 CNS = test system: SNB-75 CNS
SR leukemia = test system: SR leukemia
SW-620 colon = test system: SW-620 colon
T-47D breast = test system: T-47D breast
TK-10 renal = test system: TK-10 renal
U251 CNS = test system: U251 CNS
UACC-257 melanoma = test system: UACC-257 melanoma
UACC-62 melanoma = test system: UACC-62 melanoma
UO-31 renal = test system: UO-31 renal

Measured: TGI

Cc1cc(=O)[nH]c(-n2[nH]c3c(c2=O)CCCC3)n1
> 100 µM: 786-0 renal | A498 renal | A549 NSCLC | ACHN renal | BT-549 breast | CAKI-1 renal | CCRF-CEM leukemia | COLO 205 colon | DU-145 prostate | EKVX NSCLC | HCT-116 colon | HCT-15 colon | HL-60(TB) leukemia | HOP-92 NSCLC | HS 578T breast | HT29 colon | IGROV1 ovarian | K-562 leukemia | KM12 colon | M14 melanoma | MALME-3M melanoma | MCF7 breast | MDA-MB-231 breast | MDA-MB-435 | MDA-N | MOLT-4 leukemia | NCI-H226 lung | NCI-H23 lung | NCI-H460 lung | NCI-H522 lung | OVCAR-4 ovarian | OVCAR-5 ovarian | PC-3 prostate | RPMI-8226 leukemia | SF-268 CNS | SF-295 CNS | SF-539 CNS | SK-MEL-2 melanoma | SK-MEL-28 melanoma | SK-MEL-5 melanoma | SK-OV-3 ovarian | SN12C renal | SNB-19 CNS | SR leukemia | SW-620 colon | T-47D breast | TK-10 renal | U251 CNS | UACC-257 melanoma | UACC-62 melanoma | UO-31 renal
9.37 µM: SNB-75 CNS
48.7 µM: RXF 393 renal
